Results as given in US20140142177A1, “TOPICAL ORGANIC ACID SALT COMPOSITIONS SUITABLE FOR TREATING INFECTIONS” (priority 2009, published 2014).

Tested on: T. rubrum
Test: Demonstration of synergistic activity, CLSI Reference Method 38-A2, growth at combined dilutions
Type: cell-based, Trichophyton rubrum
Design: key to growth of T. rubrum: N=negative growth; P=positive growth
Settings: for concentration at which negative growth was shown, individually: T. rubrum, tested individually
Method: This method is the gold standard used in measuring the antifungal susceptibility of filamentous fungi that cause invasive infections. Fungal colonies are grown on potato glucose agar (PGA). One colony is picked and grown in Sabouraud glucose broth (SGB) at 24° C. for 3 days in the presence of test compound. Microdilution trays are incubated at 24° C., and are read after 5 days of culture. Turbidity in the microdilution wells is scored with the aid of a reading mirror and compared with that of the growth control. A numerical score from 0 to 4 is given to each well using the following scale: 0=optically clear or absence of growth, 1=slight growth (25% of growth control), 2=prominent reduction in growth (50% of growth control), 3=slight reduction in growth (75% of growth control), 4=no reduction in growth.

Question: CCC(=O)[O-].CCC(=O)[O-].[Zn+2] [Formulation F9, zinc propionate] was tested. Which “growth of T. rubrum” value (F9 0.004X alone) did it give?
Answer: P 0.004X

Question: What about the “growth of T. rubrum” value (F9 0.007X alone) of the same compound?
Answer: P 0.007X

Question: What about the “growth of T. rubrum” value (F9 0.015X alone) of the same compound?
Answer: P 0.015X

Question: And the “growth of T. rubrum” value (F9 0.03X alone)?
Answer: N 0.03X

Question: And the “growth of T. rubrum” value (F9 0.06X alone)?
Answer: N 0.06X

Question: And the “growth of T. rubrum” value (F9 0.125X alone)?
Answer: N 0.125X

Question: What about the “growth of T. rubrum” value (F9 0.25X alone) of the same compound?
Answer: N 0.25X

Question: What about the “concentration at which negative growth was shown, individually” value (from here on “concentration”) of the same compound?
Answer: 0.03 times the initial concentration

Question: O=C([O-])c1ccccc1.[Na+] [Formulation F11, sodium benzoate] was tested. Which “growth of T. rubrum” value (F11 0.004X alone) did it give?
Answer: P 0.004X

Question: What about the “growth of T. rubrum” value (F11 0.007X alone) of the same compound?
Answer: P 0.007X

Question: And the “growth of T. rubrum” value (F11 0.015X alone)?
Answer: P 0.015X

Question: And the “growth of T. rubrum” value (F11 0.03X alone)?
Answer: N 0.03X

Question: And the “growth of T. rubrum” value (F11 0.06X alone)?
Answer: N 0.06X

Question: And the “growth of T. rubrum” value (F11 0.125X alone)?
Answer: N 0.125X

Question: What about the “growth of T. rubrum” value (F11 0.25X alone) of the same compound?
Answer: N 0.25X

Question: And the “concentration” value?
Answer: 0.03 times the initial concentration

Question: With O=C[O-].[Na+] [Formulation F12, sodium formate] as the compound, how does the “growth of T. rubrum” value (F12 0.004X alone) read?
Answer: P 0.004X

Question: What about the “growth of T. rubrum” value (F12 0.007X alone) of the same compound?
Answer: P 0.007X

Question: What about the “growth of T. rubrum” value (F12 0.015X alone) of the same compound?
Answer: P 0.015X

Question: And the “growth of T. rubrum” value (F12 0.03X alone)?
Answer: P 0.03X

Question: What about the “growth of T. rubrum” value (F12 0.06X alone) of the same compound?
Answer: N 0.06X

Question: And the “growth of T. rubrum” value (F12 0.125X alone)?
Answer: N 0.125X

Question: What about the “growth of T. rubrum” value (F12 0.25X alone) of the same compound?
Answer: N 0.25X

Question: And the “concentration” value?
Answer: 0.06 times the initial concentration

Question: For CC(=O)[O-].[Na+] [Formulation F14, sodium acetate], which “growth of T. rubrum” value (F14 0.004X alone) is on record?
Answer: P 0.004X

Question: What about the “growth of T. rubrum” value (F14 0.007X alone) of the same compound?
Answer: P 0.007X

Question: And the “growth of T. rubrum” value (F14 0.015X alone)?
Answer: P 0.015X

Question: What about the “growth of T. rubrum” value (F14 0.03X alone) of the same compound?
Answer: P 0.03X

Question: And the “growth of T. rubrum” value (F14 0.06X alone)?
Answer: P 0.06X

Question: What about the “growth of T. rubrum” value (F14 0.125X alone) of the same compound?
Answer: N 0.125X

Question: What about the “growth of T. rubrum” value (F14 0.25X alone) of the same compound?
Answer: N 0.25X

Question: What about the “concentration” value of the same compound?
Answer: 0.125 times the initial concentration
